Assay results published in article PMC6482291, “Anticonvulsant Activity of Pterostilbene in Zebrafish and Mouse Acute Seizure Tests” (Neurochemical Research, 2019).
Values belong to the molecule of their own block, whether it stands above or below them.

Experiments:
[1] = test system: PTZ-induced seizures in mice; experiment: Timed iv PTZ seizure threshold test in mice; assay type: in vivo; conditions: VPA 150 mg/kg ip, 15 min before test
Procedure: Each mice was placed in the cylindrical restrainer and the needle (27G, 3/4 in., Sterican®, B. Braun Melsungen AG, Melsungen, Germany) was injected into the lateral tail vein. The needle was attached by the polyethylene drain (PE20RW, Plastic One Inc. Roanoke, VA, USA) with the syringe containing 1% solution of PTZ (Sigma–Aldrich, St. Louis, MO, USA) in water and the syringe was located in the infuse pomp (model Physio 22, Hugo Sachs Elektronik–Harvard Apparatus GmbH, March-Hugstetten, Germany). The correct placement of the needle in the vein was confirmed based on the presence of the blood in the drain and the needle was protected against displacement by a peace of adhesive tape. Following injection, mice were took out from the restrainer and placed in the Plexiglas box for observation. The PTZ solution was infused into the vein at a constant rate of 0.2 ml/min. The time intervals from the start of infusion of PTZ solution to the beginning of three kinds of seizures, i.e., the first myoclonic twitch, generalized clonus with loss of the righting reflex and forelimb tonic extension, were noted. Infusion of PTZ solution was stopped immediately after onset of the tonic seizures, which usually were lethal. If animal survived the test, it was euthanized immediately. The threshold dose of PTZ (in mg/kg body weight) for each kind of seizures was calculated according to the following formula: PTZmg/kg=infusion durations×infusion rateml/s×PTZ concentrationmg/ml/weightkg
Experimental groups consisted of 9–13 animals. The data obtained in the iv PTZ test are presented as the threshold dose of PTZ (in mg/kg) + standard error of the mean (SEM) needed to elicit the respective kind of seizures. The data were analyzed by one-way ANOVA followed by the Tukey’s multiple comparison test. Statistical significance was noted when p values were equal or lower than 0.05.

[2] = test system: maximal electroshock seizures in mice; experiment: Maximal electroshock seizure threshold (MEST) test; assay type: in vivo; conditions: VPA 150 mg/kg ip
Text: Seizures in the MEST test were evoked by applying a sine-wave alternating current (maximal output voltage 500 V, 50 Hz for 0.2 s) generated by constant current stimulator (Rodent Shocker, Type 221, Hugo Sachs Elektronik, Freiburg, Germany). The stimulation was delivered by saline-socked transcorneal electrodes. Before the stimulation 1% solution of tetracaine hydrochloride was applied into animals’ eyes for local anesthesia. During the stimulation animals were restrained manually and immediately after the stimulation they were placed in the Plexiglas box for observation. The endpoint evaluated in the test was the maximal electroconvulsion which was defined as extension of the hindlimbs above a 90° angle to the torso of animal.
The threshold for maximal electroshock was determined according to the up-and-down method described by Kimball et al.. The mice in the experimental group were subjected to the stimuli with different current intensities (range of 8–30 mA) which changes in 0.06-log steps. If stimulated mouse respond with seizures, the next mouse in the group was stimulated with current of intensity 0.06-log step lower than the previous one. […] Groups of 20 stimulated animals were used to calculate the threshold current strength (CS50 in mA; the current strength which induces tonic hindlimb extension in 50% of the tested animals) with SEM.
CS50 values were compared with one-way ANOVA followed by the Tukey’s multiple comparison test.

[3] = test system: 6 Hz-induced psychomotor seizures in mice; experiment: 6 Hz psychomotor seizure threshold test; assay type: in vivo; conditions: VPA 50 mg/kg ip, 15 min before test; 95% confidence limits in brackets
Text: Psychomotor (limbic) seizures were induced by transcorneal stimulation (6 Hz, 0.2 ms rectangular pulse, 3 s duration) generated by a Grass S48 stimulator coupled with a constant current unit CCU1 (both from Grass Technologies, West Warwick, RI, USA). Before stimulation a drop of ocular anesthetic, 1% tetracaine hydrochloride solution, was applied into the animals’ corneas. The electrodes were soaked in saline to ensure the good electrical contact. During the stimulation animals were restrained manually and immediately after the stimulation were placed in a Plexiglas box for observation of presence or absence of the psychomotor seizures. These seizures were characterized by immobilization or stun, often associated with rearing, forelimb clonus, twitching of vibrissae and elevated tail (Straub-tail), lasting at least 10 s from the stimulation. Lack of the above symptoms or their cessation within 10 s from the stimulation was considered as absence of seizure activity.
In the present study two 6 Hz-induced psychomotor seizure tests were performed: (1) the 6 Hz psychomotor seizure threshold test which employed stimulation at varied current intensities, and (2) the 6 Hz psychomotor seizure test with supramaximal stimulation at 32 mA and 44 mA.
In the 6 Hz psychomotor seizures threshold test, threshold current intensity (CS50 in mA) was estimated in groups of 20 animals according to the above mentioned up-and-down method.

mice [4] = experiment: Grip-strength test; assay type: in vivo; conditions: 15 min before test
Procedure: The acute effect of PTE on the skeletal muscles strength in mice was determined in the grip strength test. The apparatus for this test (BioSeb, Chaville, France) consisted of a steel wire grid (8 × 8 cm) connected to an isometric force transducer. Each mouse was lifted by tail and allowed to grasp the grid with its forepaws and then it was gently pulled backward until its released the grid. The maximal force in newtons (N) exerted by mouse before leaving the grid was recorded. The mean of three consecutive measurements for each animal was calculated and normalized to body weight (mN/g).
Experimental groups consisted of 12 animals. Results obtained in the grip-strength test were compared using one-way ANOVA followed by the Tukey’s post-hoc multiple comparison test.

mice [5] = experiment: Chimney test; assay type: in vivo; conditions: 15 min before test
Procedure: The chimney test was performed to evaluate influence of PTE on motor coordination in mice. During the test mice had to climb backwards up the plastic transparent cylinder (inner diameter 3 cm and length 30 cm) with gravelly inside. The inability of mice to escape from the cylinder within 60 s was considered as an motor impairment. Results obtained in the test were presented as percent of impaired mice in groups of 10–12 animals and were compared with the Fisher’s exact probability test.

[6] = test system: PTZ-induced seizures in rats; conditions: PTZ test in rats; cited from earlier work
MES seizures in mice = test system: MES seizures in mice; parameters: method as in PMID 27600732; conditions: cited from earlier work
[7] = test system: 6 Hz psychomotor seizures in mice; parameters: method as in PMID 27600732; conditions: cited from earlier work
rats = test system: rats; parameters: method as in PMID 24717328; conditions: acute and chronic administration; cited from earlier work
mice [8] = experiment: Forced swim test; assay type: in vivo; conditions: IMI 20 mg/kg ip; p < 0.05
Procedure: The forced swim test was carried out according to the method described by Porsolt et al. to assess antidepressant properties of PTE. Mice were placed individually in a glass cylinder (25 cm high; 10 cm diameter) containing tap water to a depth of 11 cm. Water was maintained at temperature of 23–25 °C. Mice were permitted to swim for 6 min and duration of their immobility was recorded during the last 4 min of the test by a trained experimenter who was blinded to the treatment. Immobility time was recorded using cumulative stopwatches. Mouse was considered to be immobile when it was floating in the water without struggling and making no attempts to escape, it was making only these movements necessary to keep its head above the water. After each trial, the water in the cylinder was replaced with fresh water. Experimental groups consisted of 10 animals.
Data obtained in the forced swim test were expressed as the mean (in s) + SEM immobility time in each experimental group. Results were analyzed by one-way ANOVA.

Neuromuscular strength (mice [4]; VPA 50 mg/kg ip): 31.12 ± 1.20 mN/g
Neuromuscular strength (mice [4]; VPA 150 mg/kg ip): 25.36 ± 0.92 mN/g
Impairment of motor coordination (percentage of animals) (mice [5]; VPA 50 mg/kg ip): 0%
Impairment of motor coordination (percentage of animals) (mice [5]; VPA 150 mg/kg ip): 0%
Compound: CCCC(CCC)C(=O)O [VPA, valproic acid, reference compound]
threshold for the first myoclonic twitch vs negative control ([1]; p < 0.001): Statistically significant increases
increase of threshold for generalized clonic seizures vs negative control ([1]; p < 0.01): over 45%
threshold for tonic forelimb extension vs negative control ([1]; p < 0.01): Statistically significant increase
CS50 (seizure threshold) ([2]; 15 min before test, 95% confidence limits in brackets): 14.13 (13.27–15.04) mA
increase of seizure threshold vs negative control ([2]; p < 0.001): ~ 49%
CS50 (psychomotor seizure threshold) [3]: 15.97 (15.13–16.85) mA

Compound: Oc1ccc(/C=C/c2cc(O)cc(O)c2)cc1 [RES, resveratrol]
duration of clonic seizures [6]: reduced the duration
incidence of the generalized tonic-clonic seizures [6]: decreased incidence
anticonvulsant activity in the MES test (MES seizures in mice): showed significant anticonvulsant activity neither in the MES nor 6 Hz psychomotor seizure tests
anticonvulsant activity in the 6 Hz psychomotor seizure test [7]: showed significant anticonvulsant activity neither in the MES nor 6 Hz psychomotor seizure tests
immobility time in the forced swim test (rats): decreased immobility time

Compound: CN(C)CCCN1c2ccccc2CCc2ccccc21 [IMI, imipramine, reference compound]
immobility time vs control (mice [8]): Statistically significant difference
